Structures are written as SMILES. Some results are limits rather than exact numbers.

The target of this assay is T1, Human complement C1s enzyme (Homo sapiens, UniProt P09871).
T1 construct: purified from human serum, Complement Technology, Inc; purchased Complement Technology, Inc; host or cells: human serum (plasma-derived native protein)
T1 sequence (P09871 438-688 limits assumed): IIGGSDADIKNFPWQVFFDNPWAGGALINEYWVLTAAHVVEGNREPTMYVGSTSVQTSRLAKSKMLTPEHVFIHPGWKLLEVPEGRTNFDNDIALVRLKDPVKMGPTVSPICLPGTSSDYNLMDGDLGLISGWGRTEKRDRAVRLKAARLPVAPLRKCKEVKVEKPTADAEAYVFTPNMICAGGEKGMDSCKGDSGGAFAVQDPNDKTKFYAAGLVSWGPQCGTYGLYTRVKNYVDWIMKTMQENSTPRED
T1 sequence (P09871 16-437 partner limits assumed): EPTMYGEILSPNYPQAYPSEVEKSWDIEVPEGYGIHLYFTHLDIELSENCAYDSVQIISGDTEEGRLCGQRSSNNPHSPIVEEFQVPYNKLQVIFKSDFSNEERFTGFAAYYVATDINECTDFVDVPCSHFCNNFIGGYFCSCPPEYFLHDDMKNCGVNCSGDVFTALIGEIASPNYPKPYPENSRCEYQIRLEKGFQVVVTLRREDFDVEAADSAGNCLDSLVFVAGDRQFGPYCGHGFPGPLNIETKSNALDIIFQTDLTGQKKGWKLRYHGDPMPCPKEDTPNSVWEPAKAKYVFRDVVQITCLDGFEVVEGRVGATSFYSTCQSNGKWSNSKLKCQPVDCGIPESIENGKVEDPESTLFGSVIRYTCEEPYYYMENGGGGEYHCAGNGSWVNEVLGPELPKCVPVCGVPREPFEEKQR
The experiment in a line: Human C1s enzyme assay. It counts as biochemical. To be noted: human complement C1s enzyme 1.16 nM, substrate Z-L-Lys-SBzl, A405; read-out: IC50 (Stars). Here is the method:
The […] values of the compounds of Table 1 were determined with the human C1s enzyme assay described below. Other standard complement assays are also available.
Human complement C1s enzyme (purified from human serum, Complement Technology, Inc.) at 1.16 nM final concentration was incubated with test compound at various concentrations for 5 min at room temperature in 50 mM Tris, 1 M NaCl, pH 7.5. A synthetic substrate Z-L-Lys-SBzl and DTNB (Ellman's reagent) were added to final concentrations of 100 μM each. Absorbance at 405 nm (A405) was recorded at 30 second intervals for […] using a microplate spectrophotometer. IC values were calculated by nonlinear regression of complement C1s reaction rates as a function of test compound concentration.
[…]; ND indicates a compound for which the IC50 value is not determined.

On to `O=C(Cn1c(-c2ccccc2)ncc(NCc2cc3ccc2CCc2ccc(cc2)CC3)c1=O)NCc1cc2cnccc2[nH]1` [Compound 43, 2-(5-((1,4(1,4)-dibenzena-cyclohexaphane-1(2)-ylmeth-yl)amino)-6-oxo-2-phenylpyr-imidin-1(6H)-yl)-N-((1H-pyr-rolo[3,2-c]pyridin-2-yl)meth-yl)acetamide], for which the IC50 (as a rule, the concentration that inhibits the measured activity by half) is greater than 1000 nM.
Next, `O=C(Cn1c(-c2ccccc2)ncc(N2CCn3c(nnc3C(F)(F)F)C2)c1=O)NCc1cc2cnccc2[nH]1` [Compound 44, N-((1H-pyrrolo[3,2-c]pyridin-2-yl)methyl)-2-(6-oxo-2-phen-yl-5-(3-(trifluoromethyl)-5,6-dihydro-[1,2,4]triazolo[4,3-a]pyrazin-7(8H)-yl)pyrimidin-1(6H)-yl)acetamide]: 100 to 1000 nM; `COc1ccc(CCCNc2cnc(-c3ccccc3)n(CC(=O)NCc3cc4cnccc4[nH]3)c2=O)cc1` [Compound 45, N-((1H-pyrrolo[3,2-c]pyridin-2-yl)methyl)-2-(5-((3-(4-methoxyphenyl)propyl)amino)-6-oxo-2-phenylpyrimidin-1(6H)-yl)acetamide]: less than 100 nM.
On to `O=C(Cn1c(-c2ccccc2)ncc(NCCCc2ccc(F)cc2)c1=O)NCc1cc2cnccc2[nH]1` [Compound 46, N-((1H-pyrrolo[3,2-c]pyridin-2-yl)methyl)-2-(5-((3-(4-fluorophenyl)propyl)amino)-6-oxo-2-phenylpyrimidin-1(6H)-yl)acetamide], for which the IC50 is less than 100 nM.
In the case of `C[C@H](NC(=O)Cn1c(-c2ccccc2)cnc(NCCCc2ccccc2)c1=O)c1cc2cnccc2[nH]1` [Compound 47, (S)-N-(1-(1H-pyrrolo[3,2-c]pyridin-2-yl)ethyl)-2-(2-oxo-6-phenyl-3-((3-phenylpropyl)-amino)pyrazin-1(2H)-yl)-acetamide] it was greater than 1000 nM; in that of `N#Cc1ccc(CCCNc2cnc(-c3ccccc3)n(CC(=O)NCc3cc4cnccc4[nH]3)c2=O)cc1` [Compound 48, N-((1H-pyrrolo[3,2-c]pyridin-2-yl)methyl)-2-(5-((3-(4-cyanophenyl)propyl)amino)-6-oxo-2-phenylpyrimidin-1(6H)-yl)acetamide], less than 100 nM.
In the case of `O=C(Cn1c(-c2ccccc2)ncc(NC(=O)C2CCC(Oc3ccccc3)CC2)c1=O)NCc1cc2cnccc2[nH]1` (centres unmarked) [Compound 49, N-[6-oxo-1-[2-oxo-2-(1H-pyrrolo[3,2-c]pyridin-2-ylmethylamino)ethyl]-2-phenyl-pyrimidin-5-yl]-4-phenoxy-cyclohexanecarboxamide] it was less than 100 nM; in that of `O=C(Cn1c(-c2ccccc2)ncc(NC(=O)c2ccc(Oc3ccc(C(F)(F)F)cc3)cc2)c1=O)NCc1cc2cnccc2[nH]1` [Compound 50, N-(1-(2-(((1H-pyrrolo[3,2-c]pyridin-2-yl)methyl)amino)-2-oxoethyl)-6-oxo-2-phenyl-1,6-dihydropyrimidin-5-yl)-4-(4-(trifluoromethyl)phenoxy)-benzamide], less than 100 nM.
Next, `O=C(Cn1c(-c2ccccc2)ncc(NC(=O)c2ccc(Oc3ccc(Br)cc3)cc2)c1=O)NCc1cc2cnccc2[nH]1` [Compound 51, N-(1-(2-(((1H-pyrrolo[3,2-c]pyridin-2-yl)methyl)amino)-2-oxoethyl)-6-oxo-2-phenyl-1,6-dihydropyrimidin-5-yl)-4-(4-bromophenoxy)benzamide]: less than 100 nM; `O=C(Cn1c(-c2ccccc2)ncc(NC(=O)c2ccc(Oc3ccc(F)cc3)cc2)c1=O)NCc1cc2cnccc2[nH]1` [Compound 52, N-(1-(2-(((1H-pyrrolo[3,2-c]pyridin-2-yl)methyl)amino)-2-oxoethyl)-6-oxo-2-phenyl-1,6-dihydropyrimidin-5-yl)-4-(4-fluorophenoxy)benzamide]: less than 100 nM.
As to `O=C(Cn1c(-c2ccccc2)ncc(NC(=O)c2ccc(Oc3cccnc3)cc2)c1=O)NCc1cc2cnccc2[nH]1` [Compound 53, N-(1-(2-(((1H-pyrrolo[3,2-c]pyridin-2-yl)methyl)amino)-2-oxoethyl)-6-oxo-2-phenyl-1,6-dihydropyrimidin-5-yl)-4-(pyridin-3-yloxy)benzamide], the IC50 is less than 100 nM.
For the compound `O=C(Cn1c(-c2ccccc2)ncc(NC(=O)c2ccc(Oc3ccc(F)cc3F)cc2)c1=O)NCc1cc2cnccc2[nH]1` [Compound 55, N-(1-(2-(((1H-pyrrolo[3,2-c]pyridin-2-yl)methyl)amino)-2-oxoethyl)-6-oxo-2-phenyl-1,6-dihydropyrimidin-5-yl)-4-(2,4-difluorophenoxy)benzamide], the IC50 was less than 100 nM.
In the case of `O=C(Cn1c(-c2ccccc2)ncc(NC(=O)c2ccc(-c3cccs3)cc2)c1=O)NCc1cc2cnccc2[nH]1` [Compound 56, N-(1-(2-(((1H-pyrrolo[3,2-c]pyridin-2-yl)methyl)amino)-2-oxoethyl)-6-oxo-2-phenyl-1,6-dihydropyrimidin-5-yl)-4-(thiophen-2-yl)benzamide], the IC50 was less than 100 nM.
Next, `O=C(Cn1c(-c2ccccc2)ncc(NC(=O)c2ccc(Oc3ccccc3)o2)c1=O)NCc1cc2cnccc2[nH]1` [Compound 57, N-(1-(2-(((1H-pyrrolo[3,2-c]pyridin-2-yl)methyl)amino)-2-oxoethyl)-6-oxo-2-phenyl-1,6-dihydropyrimidin-5-yl)-5-phen-oxyfuran-2-carboxamide]: less than 100 nM.
Next, `O=C(Cn1c(-c2ccccc2)ncc(NC(=O)c2cccc(Oc3ccccc3)c2)c1=O)NCc1cc2cnccc2[nH]1` [Compound 58, N-(1-(2-(((1H-pyrrolo[3,2-c]pyridin-2-yl)methyl)amino)-2-oxoethyl)-6-oxo-2-phenyl-1,6-dihydropyrimidin-5-yl)-3-phen-oxybenzamide]: less than 100 nM; `O=C(Cn1c(-c2ccccc2)ncc(NC(=O)c2ccc(-n3cccc3)cc2)c1=O)NCc1cc2cnccc2[nH]1` [Compound 59, N-(1-(2-(((1H-pyrrolo[3,2-c]pyridin-2-yl)methyl)amino)-2-oxoethyl)-6-oxo-2-phenyl-1,6-dihydropyrimidin-5-yl)-4-(1H-pyrrol-1-yl)benzamide]: less than 100 nM; `O=C(Cn1c(-c2ccccc2)cnc(NCc2ccc(-c3ccccc3)cc2)c1=O)NCc1cc2cnccc2[nH]1` [Compound 60, N-((1H-pyrrolo[3,2-c]pyridin-2-yl)methyl)-2-(3-(([1,1′-biphenyl]-4-ylmethyl)amino)-2-oxo-6-phenylpyrazin-1(2H)-yl)acetamide]: less than 100 nM.
In the case of `C[C@@H](Nc1cnc(-c2ccccc2)n(CC(=O)NCc2cc3cnccc3[nH]2)c1=O)c1ccc(Oc2ccccc2)cc1` [Compound 61, (R)—N-((1H-pyrrolo[3,2-c]pyridine-2-yl)methyl)-2-(6-oxo-5-((1-(4-phenoxyphenyl)ethyl)amino)-2-phenylpyrimidin-1(6H)-yl)acetamide] it was less than 100 nM; in that of `C[C@H](Nc1cnc(-c2ccccc2)n(CC(=O)NCc2cc3cnccc3[nH]2)c1=O)c1ccc(Oc2ccccc2)cc1` [Compound 62, (S)-N-((1H-pyrrolo[3,2-c]pyr-idin-2-yl)methyl)-2-(6-oxo-5-((1-(4-phenoxyphenyl)ethyl)-amino)-2-phenylpyrimidin-1(6H)-yl)acetamide], less than 100 nM; in that of `O=C(Cn1c(-c2ccccc2)cnc(NCc2ccc(Oc3ccccc3)cc2)c1=O)NCc1cc2cnccc2[nH]1` [Compound 63, N-((1H-pyrrolo[3,2-c]pyridine-2-yl)methyl)-2-(2-oxo-3-((4-phenoxybenzyl)amino)-6-phenylpyrazin-1(2H)-yl)acetamide], less than 100 nM.

(Values after patent publication US20260184707A1, “PHARMACEUTICAL COMPOUNDS FOR THE TREATMENT OF COMPLEMENT MEDIATED DISORDERS” (ALEXION PHARMACEUTICALS, INC., priority 2022, published 2026).)
